Measured values from publication PMC6278664, “Highly Cancer Selective Antiproliferative Activity of Natural Prenylated Flavonoids” (Molecules, 2018).

Legend:
PC-3 cell line = tested on: PC-3 cell line; parameters: method as in PMID 23434138; conditions: earlier study; cited from earlier work
human CYP1A1 = tested on: human CYP1A1; parameters: method as in PMID 10752639; conditions: cited from earlier work
[1] = tested on: MCF7 human breast cancer cell line; assay: SRB antiproliferative assay, MCF7; format: cell-based
Method: (§1) We determined the effect of various structural factors in the substrates on the antiproliferative activity against those selected to the study cell lines: the location and/or the presence of the prenyl group, the chalcone/flavanone skeleton and the presence of an O-methyl group at C-5 in flavanones. Flavonoids presented in Figure 1 were tested for the antiproliferative activity towards eight cancer cell lines including estrogen-dependent (MCF7 and T-47D) and two normal ones (HLMEC and MCF 10A). The in vitro antiproliferative activity was measured using SRB assay. The results are presented in Figure 2 (and in the supplement in Table S1). The antiproliferative activity was measured separately for each of the experiments and given as the average IC50 (the concentration of tested compound which inhibits 50% of the cells population). Cisplatin (CP), a common anticancer drug, was used as a positive control.
(§2) The following established in vitro cell lines were applied: MCF7, T-47D, MDA-MB-231 (human breast cancer cell line), A2780 (human ovarian cancer cell line), A2780cis (human cisplatin-resistant ovarian cancer cell line), PC-3 and DU 145 (human prostate cancer cell lines), HT-29 (human colon cancer cell line), HLMEC (human lung microvascular endothelial cell line), and MCF 10A (human mammary epithelial cells line).
(§3) The cell lines: MDA-MB-231, HT-29, PC-3, DU 145, and MCF 10A were obtained from the American Type Culture Collection (Rockville, MD, USA), MCF7, T-47D, A2780, A2780cis from the European Collection Cell Cultures (Sigma-Aldrich, Chemie GmbH, Steinheim, Germany), while the HLMEC cell line was obtained by M. Paprocka from the institute. All cell lines are being maintained in the Institute of Immunology and Experimental Therapy (Wrocław, Poland). DU 145 and MCF7 cells were cultured in Eagle medium (supplemented with 4mM L-glutamine, 10% fetal bovine serum, 1 mM sodium pyruvate for DU 145 cells or 2 mM L-glutamine, 1% mem non-essential amino acid solution and 8 µg/mL insulin and 10% fetal bovine serum for MCF7). […] HT-29 and T-47D cell lines were cultured in RPMI 1640 + OPTI-MEM medium supplemented with 2 mM L-glutamine, 5% fetal bovine serum and 8 µg/mL of insulin (T-47D) or 1 mM sodium pyruvate (HT-29). MDA-MB-231, PC-3 and HLMEC cell lines were cultured in RPMI 1640 medium supplemented with 2 mM L-glutamine and 10% fetal bovine serum. Medium for MCF 10A cell line consisted of F-12 nutrient mixture supplemented with cholera toxin (0.05 µg/mL), insulin (10 µg/mL), hydrocortisone (0.5 µg/mL), 5% horse serum, and EGFH (20 ng/mL). All the culture media contained antibiotics: 100 units/mL penicillin (Polfa Tarchomin SA, Warsaw, Poland), and 100 µg/mL streptomycin (Sigma-Aldrich, Chemie GmbH, Steinheim, Germany). All cell lines were grown at 37 °C with 5% CO2 humidified atmosphere.
(§4) Twenty-four hours before the incubation with the tested compounds, the cells were seeded in 96-plates (Sarstedt, Germany) at a density of 1 × 10^4 cells per well (0.75 × 10^4 per well for MCF7 and 1 × 10^3 per well for HLMEC) in 100 µL of a culture medium.
(§5) Each agent at each concentration (from 0.1 to 100 µg/mL) was tested in a single experiment, which was repeated four to five times. […] Cisplatin was used as a reference drug.
(§6) The results were calculated as the IC50 (inhibitory concentration 50%)—the concentration of the tested compound which inhibits 50% of the cells population. IC50 values were calculated for each experiment separately and mean values ± SD are presented in the Table S1 in the Supplementary Materials. Each compound at each concentration was tested in triplicate in a single experiment, which was repeated four to five times.
(§7) The cells were fixed in situ by gently adding cold 50% trichloroacetic acid (50 µL per well). The plates were incubated at 4 °C for 1h and then washed five times with tap water. […]

[2] = breast tissue study of Bolca and co-workers; cited from earlier work
[3] = tested on: HT-29 human colon cancer cell line; assay: SRB antiproliferative assay, HT-29; format: cell-based
[4] = tested on: HLMEC human lung microvascular endothelial cell line; assay: SRB antiproliferative assay, HLMEC (normal); format: cell-based; conditions: Homo sapiens, Endothelial cell, 72 h, mean ± SD
[5] = tested on: MCF 10A human mammary epithelial cells line; assay: SRB antiproliferative assay, MCF 10A (normal); format: cell-based; conditions: Homo sapiens, MCF-10A, 72 h, mean ± SD, read-out: Normal cell line, IC50, MCF-10A
Method: as §1, §2, §3, §4, §5, §6, §7

[6] = tested on: T-47D human breast cancer cell line; assay: SRB antiproliferative assay, T-47D; format: cell-based
Method: as §1, §2, §3, §4, §5, §6, §7

human CYP1B1 = tested on: human CYP1B1; parameters: method as in PMID 10752639; conditions: cited from earlier work
[7] = tested on: A2780 human ovarian cancer cell line; assay: SRB antiproliferative assay, A2780; format: cell-based
Method: as §1, §2, §3, §4, §5, §6, §7

[8] = tested on: DU 145 human prostate cancer cell line; assay: SRB antiproliferative assay, DU 145; format: cell-based
Method: as §1, §2, §3, §4, §5, §6, §7

[9] = tested on: PC-3 human prostate cancer cell line; assay: SRB antiproliferative assay, PC-3; format: cell-based
Method: as §1, §2, §3, §4, §5, §6, §7

[10] = tested on: A2780cis human cisplatin-resistant ovarian cancer cell line; assay: SRB antiproliferative assay, A2780cis; format: cell-based
Method: as §1, §2, §3, §4, §5, §6, §7

[11] = tested on: MDA-MB-231 human breast cancer cell line; assay: SRB antiproliferative assay, MDA-MB-231; format: cell-based
Method: as §1, §2, §3, §4, §5, §6, §7

COc1cc(O)c(CCC(C)(C)O)c(O)c1C(=O)/C=C/c1ccc(O)cc1 [xanthohumol H, 3′-[3′-hydroxy-3”methylbutyl]-4,2′,4′-trihydroxy-6′-methoxychalcone]
Antiproliferative activity towards PC-3 cell line (PC-3 cell line): inactive

COc1cc(O)c(CC=C(C)C)c(O)c1C(=O)/C=C/c1ccc(O)cc1 [XN, 3′-(3,3-dimethylallyl)-4,2′,4′-trihydroxy-6′-methoxychalcone]
Inhibition of EROD activity of CYP1A1 (human CYP1A1): almost completely inhibited | IC50 ([1]; Homo sapiens, MCF7, 72 h, SRB, 72 h, mean ± SD): 10.8 ± 0.32 µM | Selectivity index SIA, MCF-7 ([1]; IC50 HLMEC / IC50 MCF-7): 0.88 | Selectivity index SIB, MCF-7 ([1]; IC50 MCF-10A / IC50 MCF-7): 5.16 | Glucuronidation [2]: > 90% | IC50 ([3]; Homo sapiens, HT-29, SRB, 72 h, mean ± SD): 9.42 ± 0.25 µM | Selectivity index SIA, HT-29 ([3]; IC50 HLMEC / IC50 HT-29): 1.02 | Selectivity index SIB, HT-29 ([3]; IC50 MCF-10A / IC50 HT-29): 5.94 | IC50 [4]: 9.57 ± 4.23 µM | IC50 [5]: 56 ± 27.3 µM | IC50 ([6]; Homo sapiens, T47D, SRB, 72 h, mean ± SD): 7.99 ± 2.77 µM | Selectivity index SIA, T-47D ([6]; IC50 HLMEC / IC50 T-47D): 1.20 | Selectivity index SIB, T-47D ([6]; IC50 MCF-10A / IC50 T-47D): 7.00 | Inhibition of EROD activity of CYP1B1 (human CYP1B1): almost completely inhibited | IC50 ([7]; Homo sapiens, A2780, SRB, 72 h, mean ± SD, read-out: Cancer cell line, IC50, A-2780): 2.06 ± 1.03 µM | Selectivity index SIA, A-2780 ([7]; IC50 HLMEC / IC50 A-2780): 4.65 | Selectivity index SIB, A-2780 ([7]; IC50 MCF-10A / IC50 A-2780): 27.16 | SIA against A2780, times higher than the reference ([7]; ratio of SIA to SIA of cisplatin): 5-8 times | IC50 ([8]; Homo sapiens, DU-145, SRB, 72 h, mean ± SD): 6.49 ± 2.14 µM | Selectivity index SIA, Du-145 ([8]; IC50 HLMEC / IC50 Du-145): 1.47 | Selectivity index SIB, Du-145 ([8]; IC50 MCF-10A / IC50 Du-145): 8.62 | IC50 ([9]; Homo sapiens, SRB, 72 h, mean ± SD): 8.61 ± 1.11 µM | Selectivity index SIA, PC-3 ([9]; IC50 HLMEC / IC50 PC-3): 1.11 | Selectivity index SIB, PC-3 ([9]; IC50 MCF-10A / IC50 PC-3): 6.50 | IC50 ([10]; Homo sapiens, A2780cis, SRB, 72 h, mean ± SD, read-out: Cancer cell line, IC50, A-2780cis): 8.21 ± 0.83 µM | Selectivity index SIA, A-2780cis ([10]; IC50 HLMEC / IC50 A-2780cis): 1.17 | Selectivity index SIB, A-2780cis ([10]; IC50 MCF-10A / IC50 A-2780cis): 6.81 | IC50 ([11]; Homo sapiens, MDA-MB-231, SRB, 72 h, mean ± SD): 8.46 ± 3.19 µM | Selectivity index SIA, MDA-MB-231 ([11]; IC50 HLMEC / IC50 MDA-MB-231): 1.13 | Selectivity index SIB, MDA-MB-231 ([11]; IC50 MCF-10A / IC50 MDA-MB-231): 6.61
